These results are taken from patent EP1954678B1, “NOVEL NK1 AND NK2 ANTAGONISTS” (Abbott Products GmbH, priority 2005, dated 2007).

Read-outs that look alike come from different tables or passages of the source.

One test has as its target T1, NK2 receptors (Cavia porcellus, UniProt Q64077).
T1 sequence (Q64077 1-402): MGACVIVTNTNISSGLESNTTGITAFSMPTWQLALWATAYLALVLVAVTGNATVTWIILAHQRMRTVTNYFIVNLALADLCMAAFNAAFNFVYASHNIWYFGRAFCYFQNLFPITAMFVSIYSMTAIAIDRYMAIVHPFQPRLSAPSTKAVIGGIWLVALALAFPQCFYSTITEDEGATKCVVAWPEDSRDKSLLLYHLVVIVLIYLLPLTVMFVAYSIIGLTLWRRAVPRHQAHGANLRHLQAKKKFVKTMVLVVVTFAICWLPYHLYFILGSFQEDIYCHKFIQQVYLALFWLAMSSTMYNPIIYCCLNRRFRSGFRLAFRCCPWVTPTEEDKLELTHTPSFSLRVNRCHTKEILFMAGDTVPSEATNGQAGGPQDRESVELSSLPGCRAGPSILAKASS
As to the kind of experiment: NK-2-receptor-antagonistic effectiveness in vivo in anaesthetised guinea pigs (NKA test stimulus: late hypotension, bronchoconstriction, colonic pressure). Also on record: from tissue; host or cells: whole anaesthetised guinea pig (in vivo); species or system Pirbright-White guinea pigs. The conditions noted are these: for ED50: guinea pig; for oral activity as NK2 receptor antagonist: result in words, oral administration. From the text: (§1) The NK-1- and NK-2-antagonistic activities of the test substances were investigated in anaesthetised guinea pigs in each case after intravenous (= i.v.) and oral (= p.o.) administration in vivo. With the present test model it is possible to detect both NK-2-antagonistic effects in three different organ systems (respiratory tracts, colon and circulation) and NK-1-antagonistic effects (rapid drop in blood pressure) in an animal simultaneously.
(§2) Pirbright-White guinea pigs of a body weight of 500-700 g were anaesthetised with ketamine/xylazine (67/13 mg/kg subcutaneously, initial dose, further doses administered as required). The animals were provided with an intravenous catheter in order to administer the substance and an intra-arterial catheter to measure the blood pressure. The animals were artificially ventilated via a tracheal cannula and the respiratory pressure was recorded by means of a pressure transducer. A balloon was introduced into the distal colon of the animals for manometric recording of colon motility by means of a pressure transducer. Blood pressure, heart rate, respiratory pressure and colonic pressure were measured continuously for each animal and plotted on a recorder and by means of a digital data-processing system. […] The second phase of delayed hypotension (= phase of maximum hypotension after 2-5 min.) on the other hand is mediated via NK-2 receptors, since they can be blocked by specific NK-2 receptor antagonists. […] Table 6: NK-1- and NK-2-receptor-antagonistic effective-ness of the test substances of Formula I on guinea pigs in vivo after intravenous administration
(§3) These ED50 values obtained from cumulative dose effect curves are plotted in table 6.
(§4) The antagonistic effects of the test substances were then determined as "area under the curve" ("AUC") over the investigation period after administration of the test substances (1 - 180 min after administration) and the ED50 values after oral administration obtained therefrom were plotted in table 7. Table 7: NK-1- and NK-2-receptor-antagonistic effective-ness of the test substances of Formula I on guinea pigs in vivo after oral administration

The target in the next test is T2, human NK2 receptors (Homo sapiens, UniProt P21452).
T2 construct: expressed in transfected cells; host or cells: CHO cells (membrane preparation)
T2 sequence (P21452 1-398): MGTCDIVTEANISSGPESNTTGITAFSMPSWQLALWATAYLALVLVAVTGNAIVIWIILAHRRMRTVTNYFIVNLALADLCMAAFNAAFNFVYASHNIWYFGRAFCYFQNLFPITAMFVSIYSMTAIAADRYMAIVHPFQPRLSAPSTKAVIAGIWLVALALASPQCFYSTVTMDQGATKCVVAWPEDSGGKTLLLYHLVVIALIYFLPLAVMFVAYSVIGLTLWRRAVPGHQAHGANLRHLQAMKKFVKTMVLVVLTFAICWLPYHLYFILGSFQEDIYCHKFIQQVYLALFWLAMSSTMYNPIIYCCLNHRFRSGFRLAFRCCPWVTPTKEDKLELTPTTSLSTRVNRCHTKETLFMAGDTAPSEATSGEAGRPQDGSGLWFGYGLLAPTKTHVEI
The test can be described thus: Binding of the test substances to NK2 receptors in vitro ([3H]-SR 48968 displacement, CHO cell membranes). The conditions noted are these: [3H]-SR 48968 as ligand; membranes of CHO cells expressing the human NK2 receptor; 90 min incubation; Ki calculated from IC50; read-out: pKi (NK2) (converted). Here is the method:
The affinity of the test substances to human NK2 receptors was measured in vitro. The ability of the test substances to displace the selective NK2 receptor antagonist SR 48968 (= saredutant) used as reference ligand from its corresponding bond was determined.
The receptor binding studies were carried out with radioactively marked [^3H]-SR 48968 (from Amersham) as ligand. For the binding test, different samples of a membrane preparation of CHO cells (= egg cells of the Chinese hamster, Chinese hamster oocytes), which express the human NK2 receptor (for preparation, see N.P. Gerard et al., Journal of Biological Chemistry 265/33 (1990) 20455-20462), were incubated for 90 minutes (= min.) with a solution of the marked ligand, with the incubation mixtures containing no test substance or additions of different concentrations of test substance. Then in each case the membrane-bound ligands in the samples were separated from free ligands by filtration. The fraction remaining in the filter was washed several times with buffer solution, before its radioactivity was measured using a liquid scintillation counter. That concentration which effects half-maximum displacement of the bound reference ligand was determined as IC50 of the respective test substance. The inhibition constant (Ki value) of the test substance was calculated from the respective IC50 value, and was stated as the negative logarithmised value thereof (pKi).
If several measurements were performed, the average thereof was listed each time. The pKi value is a measurement of the affinity of the test substances to human NK2 receptors.

The target of the next test is NK1 receptors (Cavia porcellus, UniProt P30547). As to the kind of experiment: NK-1-receptor-antagonistic effectiveness in vivo in anaesthetised guinea pigs (NKA test stimulus, early hypotension). Also on record: from tissue; host or cells: whole anaesthetised guinea pig (in vivo); species or system Pirbright-White guinea pigs. Particulars: for ED50: guinea pig; for oral activity as NK1 receptor antagonist: result in words, oral administration.
Source text: as §1, §2, §3, §4

The mark [1] stands for this setting: iv, read-out: ED50 iv after 1 min (cumulative) NK2 (broncho-constriction).
[2] abbreviates: iv, read-out: ED50 iv after 1 min (cumulative) NK2 (colonic motility).
Setting [3] is: iv, read-out: ED50 iv after 1 min (cumulative) NK2 (late hypotension).
Where [4] appears, read: oral, from AUC of antagonistic effect 1 - 180 min after administration, read-out: ED50 AUC1-180 min oral NK2 (broncho-constriction).
Setting [5] is: oral, from AUC of antagonistic effect 1 - 180 min after administration, read-out: ED50 AUC1-180 min oral NK2 (colonic motility).
[6] abbreviates: oral, from AUC of antagonistic effect 1 - 180 min after administration, read-out: ED50 AUC1-180 min oral NK2 (late hypotension).
Where [7] appears, read: iv, read-out: ED50 iv after 1 min (cumulative) NK1 (early hypotension).
The mark [8] stands for this setting: oral, from AUC of antagonistic effect 1 - 180 min after administration, read-out: ED50 AUC1-180 min oral NK1 (early hypotension).

NK1 receptors, sequence (P30547 whole entry): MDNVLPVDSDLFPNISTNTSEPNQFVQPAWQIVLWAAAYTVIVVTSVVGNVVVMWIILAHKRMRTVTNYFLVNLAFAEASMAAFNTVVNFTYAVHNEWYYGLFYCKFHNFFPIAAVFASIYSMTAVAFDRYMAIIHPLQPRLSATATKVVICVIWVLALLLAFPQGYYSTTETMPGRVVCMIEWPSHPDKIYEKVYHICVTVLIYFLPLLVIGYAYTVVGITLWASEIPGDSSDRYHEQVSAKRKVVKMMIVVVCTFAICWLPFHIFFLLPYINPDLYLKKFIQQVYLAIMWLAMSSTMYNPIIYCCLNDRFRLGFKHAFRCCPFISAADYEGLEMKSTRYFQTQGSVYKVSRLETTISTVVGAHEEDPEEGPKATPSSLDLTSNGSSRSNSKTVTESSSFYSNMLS

One may read the ED50 as the dose at which the effect has come halfway, by size or by number of responders. In the case of `CN(C[C@@H](CCN1CCN([C@@H](c2ccco2)[C@H](O)CO)CC1)c1ccc(Cl)c(Cl)c1)C(=O)c1cc(C#N)cc2ccccc12` [Compound 1, 3-cyano-N-[(2S)-2-(3,4-dichlorophenyl)-4-{4-[(1R,2S)-1-(2-furyl)-2,3-dihydroxypropyl]piperazin-1-yl}butyl]-N-methyl-1-naphthamide], the median effective dose (ED50) at NK2 receptors (setting [1]) turned out to be 0.321 µmol/kg; at NK2 receptors (setting [2]) it was 0.027 µmol/kg; on NK2 receptors (setting [3]), 0.643 µmol/kg; on NK2 receptors (setting [4]), 3.1 µmol/kg; at NK2 receptors (setting [5]) it was 5.5 µmol/kg; at NK2 receptors (setting [6]), 3.1 µmol/kg. Further, the ED50 on NK1 receptors (setting [7]) turned out to be 0.077 µmol/kg; at NK1 receptors (setting [8]), 22.9 µmol/kg. Besides, the “oral activity as NK2 receptor antagonist” value on NK2 receptors is “active orally”. The Ki at human NK2 receptors is 0.00794 µM. The “oral activity as NK1 receptor antagonist” value on NK1 receptors is “active orally”.

In the case of `CN(C[C@@H](CCN1CCN([C@@H](c2ccco2)[C@H](O)[C@@H](O)[C@H](O)CO)CC1)c1ccc(Cl)c(Cl)c1)C(=O)c1cc(C#N)cc2ccccc12` [Compound 2, 3-cyano-N-[(2S)-2-(3,4-dichlorophenyl)-4-{4-[(1R,2S,3R,4R)-1-(2-furyl)-2,3,4,5-tetrahydroxypentyl]piperazin-1-yl}butyl]-N-methyl-1-naphthamide], the ED50 at NK2 receptors (setting [1]) was under 0.01 µmol/kg; at NK2 receptors (setting [2]), 0.085 µmol/kg; on NK2 receptors (setting [3]) it was 0.106 µmol/kg; on NK2 receptors (setting [4]) it was 11.7 µmol/kg; on NK2 receptors (setting [5]) it was 6 µmol/kg; at NK2 receptors (setting [6]), 14.8 µmol/kg. In addition, the ED50 at NK1 receptors (setting [7]) was under 0.01 µmol/kg; at NK1 receptors (setting [8]), 15.2 µmol/kg. Besides, at NK2 receptors, the “oral activity as NK2 receptor antagonist” value is “active orally”. In addition, on human NK2 receptors, the Ki was 0.0794 µM. The “oral activity as NK1 receptor antagonist” value at NK1 receptors is listed as “active orally”.

For the compound `CN(C[C@@H](CCN1CCN(C(CO)(CO)c2ccco2)CC1)c1ccc(Cl)c(Cl)c1)C(=O)c1cc(C#N)cc2ccccc12` [Compound 6, 3-cyano-N-[(2S)-2-(3,4-dichlorophenyl)-4-{4-[1-(2-furyl)-2-hydroxy-1-(hydroxymethyl)ethyl]piperazin-1-yl}butyl]-N-methyl-1-naphthamide], the ED50 on NK2 receptors (setting [1]) was determined as 0.595 µmol/kg; at NK2 receptors (setting [2]), 0.05 µmol/kg; on NK2 receptors (setting [3]), 0.282 µmol/kg; on NK1 receptors (setting [7]) it was 0.071 µmol/kg. Also, the Ki at human NK2 receptors is 0.0398 µM.

Take `CN(C[C@@H](CCN1CCN([C@@H](c2ccco2)[C@H]2COC(=O)O2)CC1)c1ccc(Cl)c(Cl)c1)C(=O)c1cc(C#N)cc2ccccc12` [Compound 11, 3-cya no-N-[(2S)-2-(3,4-dichlorophenyl)-4-(4-{(R)-2-furyl[(4S)-2-oxo-1,3-dioxolan-4-yl]methyl}piperazin-1-yl)butyl]-N-methyl-1-naphthamide]: the ED50 on NK2 receptors (setting [1]) was determined as 0.13 µmol/kg; at NK2 receptors (setting [2]), 0.132 µmol/kg; on NK2 receptors (setting [3]), 0.145 µmol/kg; at NK1 receptors (setting [7]), 0.093 µmol/kg. In addition, the Ki at human NK2 receptors was 0.0251 µM.
